The conditions of data set [1]: bacteroides stercoris, 12 h, 2 µM.
Description: The drug is tested on Bacteroides stercoris strain: ATCC43183 for biotransformation. The drug concentrations were measured before and after a 12-h incubation by liquid-chromatography-coupled mass spectrometry (LC–MS)
Data set [2] can be described thus: The drug is tested on Anaerococcus hydrogenalis strain: DSM7454 for biotransformation. The drug concentrations were measured before and after a 12-h incubation by liquid-chromatography-coupled mass spectrometry (LC–MS). As to conditions: 2 µM.
For data set [3] the following is noted: bacteroides fragilis, 12 h, 2 µM.
Description: The drug is tested on Bacteroides fragilis strain: 3397 (T10) for biotransformation. The drug concentrations were measured before and after a 12-h incubation by liquid-chromatography-coupled mass spectrometry (LC–MS)
For data set [4] the following is noted: bacteroides fragilis, 12 h, 2 µM. The source holds these as a separate data set.
Description: The drug is tested on Bacteroides fragilis strain: NCTC 9343 for biotransformation. The drug concentrations were measured before and after a 12-h incubation by liquid-chromatography-coupled mass spectrometry (LC–MS)
A short description of data set [5]: The drug is tested on Parabacteroides merdae strain: ATCC43184 for biotransformation. The drug concentrations were measured before and after a 12-h incubation by liquid-chromatography-coupled mass spectrometry (LC–MS). As to conditions: 2 µM.
Data set [6] can be described thus: The drug is tested on Bacteroides fragilis strain: ATCC43859 for biotransformation. The drug concentrations were measured before and after a 12-h incubation by liquid-chromatography-coupled mass spectrometry (LC–MS). As to conditions: 2 µM.
A short description of data set [7]: The drug is tested on Eubacterium hallii strain: DSM3353 for biotransformation. The drug concentrations were measured before and after a 12-h incubation by liquid-chromatography-coupled mass spectrometry (LC–MS). The note with it: anaerobutyricum hallii, 2 µM.
For data set [8] the following is noted: bacteroides fragilis, 12 h, 2 µM. This is another data set of the same source.
Description: The drug is tested on Bacteroides fragilis strain: DS-208 for biotransformation. The drug concentrations were measured before and after a 12-h incubation by liquid-chromatography-coupled mass spectrometry (LC–MS)
The conditions of data set [9]: anaerostipes sp., 12 h, 2 µM.
Description: The drug is tested on Anaerostipes sp. strain: fecal isolate for biotransformation. The drug concentrations were measured before and after a 12-h incubation by liquid-chromatography-coupled mass spectrometry (LC–MS)
Data set [10] is described as follows: The drug is tested on Bacteroides dorei strain: DSM17855 for biotransformation. The drug concentrations were measured before and after a 12-h incubation by liquid-chromatography-coupled mass spectrometry (LC–MS). As to conditions: phocaeicola dorei, 2 µM.
Data set [11] in a line: The drug is tested on Collinsella intestinalis strain: DSM13280 for biotransformation. The drug concentrations were measured before and after a 12-h incubation by liquid-chromatography-coupled mass spectrometry (LC–MS). The note with it: 2 µM.
Data set [12] is described as follows: The drug is tested on Providencia stuartii strain: ATCC25827 for biotransformation. The drug concentrations were measured before and after a 12-h incubation by liquid-chromatography-coupled mass spectrometry (LC–MS). The note with it: 2 µM.
Data set [13] is described as follows: The drug is tested on Providencia rettgeri strain: DSM1131 for biotransformation. The drug concentrations were measured before and after a 12-h incubation by liquid-chromatography-coupled mass spectrometry (LC–MS). As to conditions: 2 µM. Set-up: dose 2 uM, timepoint 0 vs 12 hours. The data set is classed as ADME.
A short description of data set [14]: The drug is tested on Bacteroides coprophilus strain: DSM18228 for biotransformation. The drug concentrations were measured before and after a 12-h incubation by liquid-chromatography-coupled mass spectrometry (LC–MS). The note with it: 2 µM.
Data set [15] is described as follows: The drug is tested on Subdoligranulum variabile strain: DSM15176 for biotransformation. The drug concentrations were measured before and after a 12-h incubation by liquid-chromatography-coupled mass spectrometry (LC–MS). As to conditions: 2 µM.
Data set [16] in a line: The drug is tested on Blautia hansenii strain: DSM20583 for biotransformation. The drug concentrations were measured before and after a 12-h incubation by liquid-chromatography-coupled mass spectrometry (LC–MS). The note with it: 2 µM.
Data set [17] is described as follows: The drug is tested on Coprococcus comes strain: ATCC27758 for biotransformation. The drug concentrations were measured before and after a 12-h incubation by liquid-chromatography-coupled mass spectrometry (LC–MS). The data set is classed as ADME. Further details: dose 2 uM, timepoint 0 vs 12 hours. As to conditions: 2 µM.
A short description of data set [18]: The drug is tested on Bacteroides vulgatus strain: ATCC8482 for biotransformation. The drug concentrations were measured before and after a 12-h incubation by liquid-chromatography-coupled mass spectrometry (LC–MS). The note with it: phocaeicola vulgatus, 2 µM.
The conditions of data set [19]: bifidobacterium adolescentis, 12 h, 2 µM.
Description: The drug is tested on Bifidobacterium adolescentis strain: ATCC 15703 for biotransformation. The drug concentrations were measured before and after a 12-h incubation by liquid-chromatography-coupled mass spectrometry (LC–MS)
Data set [20] in a line: The drug is tested on Bacteroides ovatus strain: ATCC8483 for biotransformation. The drug concentrations were measured before and after a 12-h incubation by liquid-chromatography-coupled mass spectrometry (LC–MS). The note with it: 2 µM.

`O=C1[C@H](CC[C@H](O)c2ccc(F)cc2)[C@@H](c2ccc(O)cc2)N1c1ccc(F)cc1` [EZETIMIBE]: the “Bacterial Biotransformation” value in [1], in [2], in data set [3], in [4], in [5] and in [6] was “Compound NOT metabolized” in each case. The “Bacterial Biotransformation” value in data set [7], in [8], in [9], in [10], in data set [11] and in [12] was “Compound NOT metabolized” each time. Moreover, the “Bacterial Biotransformation” value in data set [13], in data set [14], in data set [15], in data set [16] and in data set [17] was “Compound NOT metabolized” throughout.

As for `Cc1ccc(S(=O)(=O)NC(=O)NN2CC3CCCC3C2)cc1` (centres undefined) [GLICLAZIDE], the “Bacterial Biotransformation” value in data set [1] is listed as “Compound NOT metabolized”; in data set [2], “Compound NOT metabolized”; in [18] it was “Compound metabolized”; in data set [3] it was “Compound metabolized”; in data set [4], “Compound NOT metabolized”; in [5] it was “Compound NOT metabolized”. Besides, the “Bacterial Biotransformation” value in data set [6] is “Compound metabolized”; in [7], “Compound NOT metabolized”; in data set [8] it was “Compound NOT metabolized”; in data set [9], “Compound NOT metabolized”; in data set [10], “Compound metabolized”; in [11], “Compound NOT metabolized”. For the same compound, the “Bacterial Biotransformation” value in [12], in data set [19], in data set [14], in data set [15], in data set [20] and in data set [16] was “Compound NOT metabolized” throughout. The “Bacterial Biotransformation” value in data set [17] is “Compound NOT metabolized”.

As to `CC(=O)O[C@]1(C(C)=O)CC[C@H]2[C@@H]3C=C(C)C4=CC(=O)CC[C@]4(C)[C@H]3CC[C@@]21C` [MEGESTROL ACETATE], the “Bacterial Biotransformation” value in data set [1] was “Compound metabolized”; in [2] it was “Compound NOT metabolized”; in [18], “Compound metabolized”; in data set [3], “Compound metabolized”; in data set [4] it was “Compound metabolized”; in [5], “Compound metabolized”. Besides, the “Bacterial Biotransformation” value in [6] is on record as “Compound metabolized”; in [7] it was “Compound NOT metabolized”; in data set [8], “Compound metabolized”; in data set [9], “Compound NOT metabolized”; in [10], “Compound metabolized”; in data set [11] it was “Compound NOT metabolized”. Further, the “Bacterial Biotransformation” value in [12] is listed as “Compound metabolized”; in data set [19], “Compound metabolized”; in data set [14] it was “Compound NOT metabolized”; in [15] it was “Compound NOT metabolized”; in data set [20], “Compound NOT metabolized”; in data set [16] it was “Compound metabolized”. Besides, in data set [17], the “Bacterial Biotransformation” value is recorded as “Compound NOT metabolized”.

Take `CO[C@]12C[C@@H](COC(=O)c3cncc(Br)c3)CN(C)[C@@H]1Cc1cn(C)c3cccc2c13` [NICERGOLINE]: the “Bacterial Biotransformation” value in data set [1] is recorded as “Compound NOT metabolized”; in data set [18], “Compound metabolized”; in data set [3], “Compound NOT metabolized”; in data set [4], “Compound NOT metabolized”; in data set [5], “Compound NOT metabolized”; in [6], “Compound NOT metabolized”. In addition, the “Bacterial Biotransformation” value in data set [7] was “Compound NOT metabolized”; in [8] it was “Compound NOT metabolized”; in [9], “Compound NOT metabolized”; in data set [10], “Compound metabolized”; in data set [11] it was “Compound NOT metabolized”; in [12] it was “Compound NOT metabolized”. Also, the “Bacterial Biotransformation” value in [19], in data set [14], in data set [15], in data set [20] and in [16] was “Compound NOT metabolized” in each case.

Take `C#C[C@]1(OC(C)=O)CC[C@H]2[C@@H]3CCC4=C/C(=N/O)CC[C@@H]4[C@H]3CC[C@@]21CC` [NORGESTIMATE]: the “Bacterial Biotransformation” value in [2], in data set [3], in data set [4], in data set [5], in data set [6] and in [7] was “Compound NOT metabolized” throughout. Moreover, the “Bacterial Biotransformation” value in [8] is “Compound NOT metabolized”; in data set [9], “Compound NOT metabolized”; in data set [10] it was “Compound metabolized”; in data set [11] it was “Compound NOT metabolized”; in data set [12] it was “Compound NOT metabolized”; in data set [19], “Compound NOT metabolized”. The “Bacterial Biotransformation” value in data set [13] is listed as “Compound NOT metabolized”; in data set [14], “Compound NOT metabolized”; in data set [15] it was “Compound NOT metabolized”; in data set [20], “Compound NOT metabolized”; in data set [16], “Compound metabolized”; in data set [17], “Compound NOT metabolized”.

On to `CN(C(=O)CN(CCO)CC(=O)N(C)C(C)(C)Cc1ccccc1)C(C)(C)Cc1ccccc1` [OXETHAZAINE], for which the “Bacterial Biotransformation” value in data set [1], in data set [2], in [18], in data set [3], in data set [5] and in data set [6] was “Compound NOT metabolized” each time. Further, the “Bacterial Biotransformation” value in data set [7], in data set [9], in [11], in data set [12], in data set [19] and in [14] was “Compound NOT metabolized” throughout. Further, the “Bacterial Biotransformation” value in [15], in data set [20] and in [16] was “Compound NOT metabolized” each time.

Turning to `CCCN1C[C@H](CSC)C[C@@H]2c3cccc4[nH]cc(c34)C[C@H]21.CS(=O)(=O)O` [PERGOLIDE MESYLATE], the “Bacterial Biotransformation” value in data set [1], in data set [2], in data set [18], in [3], in data set [4] and in data set [5] was “Compound NOT metabolized” throughout. In addition, the “Bacterial Biotransformation” value in data set [6], in [7], in [8], in [9], in data set [10] and in data set [11] was “Compound NOT metabolized” in each case. The “Bacterial Biotransformation” value in data set [12], in data set [19], in data set [14], in data set [15], in [20] and in data set [16] was “Compound NOT metabolized” in each case. Besides, the “Bacterial Biotransformation” value in data set [17] was “Compound NOT metabolized”.
